The text below walks through data of PubChem BioAssay (NCI).

Several values for one entry are separate records, joined by “and”; a condition that tells them apart may be missing. Identical values can stand only once.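 The compound was tested at five concentrations on cells cultured in 96-well plates, with a 48-hour exposure period. GI50 is the concentration that inhibits growth by half. At the TGI there is no net growth.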

Test systems include UO-31 renal; NCI-H226 lung; OVCAR-8 ovarian; SR leukemia; HCT-15 colon; OVCAR-3 ovarian; DU-145 prostate; K-562 leukemia; SK-MEL-5 melanoma; RXF 393 renal.
Holding throughout (test): growth of human tumour cells (NCI), 48 h

With `O=C1c2c(O)cccc2C(C2OC(CO)C(O)C(O)C2O)c2cc(CO)cc(O)c21` (configuration not stated), the TGI in the assay with UO-31 renal, in the assay with NCI-H226 lung, in the assay on OVCAR-8 ovarian, with SR leukemia, with HCT-15 colon and in the assay with OVCAR-3 ovarian was more than 100 µM in each case. Further, the TGI in the assay with DU-145 prostate, with K-562 leukemia, in the assay on SK-MEL-5 melanoma and with RXF 393 renal was more than 100 µM throughout. Moreover, the GI50 with SR leukemia is more than 100 µM; in the assay on OVCAR-3 ovarian, 43.9 µM and > 100 µM.

`CCOc1cc2ncc(C#N)c(Nc3ccc(OCc4ccccn4)c(Cl)c3)c2cc1NC(=O)/C=C/CN(C)C`: the GI50 is 0.122 µM and 0.133 µM in the assay on UO-31 renal; 6.06 µM and 1.69 µM in the assay on NCI-H226 lung; 0.28 µM and 0.339 µM in the assay on OVCAR-8 ovarian; 0.413 µM with SR leukemia; 0.475 µM and 0.404 µM in the assay with HCT-15 colon; 1.05 µM and 0.49 µM in the assay on OVCAR-3 ovarian. For the same compound, the GI50 in the assay on DU-145 prostate was 0.113 µM and 0.181 µM; in the assay with K-562 leukemia, 1.41 µM and 0.606 µM; in the assay with SK-MEL-5 melanoma it was 1.14 µM and 1.82 µM; in the assay with RXF 393 renal, 0.421 µM. Further, the TGI in the assay with UO-31 renal was 1.57 µM and 2.73 µM; in the assay with NCI-H226 lung, 26.7 µM and > 7.67 µM; in the assay with OVCAR-8 ovarian, 1.65 µM and > 4.46 µM; in the assay on SR leukemia, more than 3.38 µM; with HCT-15 colon, 7.97 µM and 5.67 µM; in the assay with OVCAR-3 ovarian, 20.2 µM and > 6.8 µM. The TGI is 1.93 µM and 4.73 µM with DU-145 prostate; 3.27 µM and 3.36 µM in the assay on K-562 leukemia; 6.21 µM and 4.02 µM in the assay on SK-MEL-5 melanoma; 2.28 µM in the assay on RXF 393 renal.

For the compound `CC[N+]1(C)CCC(O)(c2ccc(Cl)c(Cl)c2)C(C(=O)c2ccc(Cl)c(Cl)c2)C1` (configuration not stated), the TGI with UO-31 renal, in the assay on NCI-H226 lung, in the assay on OVCAR-8 ovarian, with SR leukemia, in the assay with HCT-15 colon and in the assay with OVCAR-3 ovarian was more than 10 µM in each case. Further, the TGI with DU-145 prostate, in the assay on K-562 leukemia, in the assay on SK-MEL-5 melanoma and in the assay on RXF 393 renal was more than 10 µM in each case.

In the case of `O=C(NC[C@H](O)CO)c1ccncc1Nc1ccc(I)cc1F`, the GI50 with UO-31 renal is 0.2 µM and 0.988 µM; with NCI-H226 lung, > 6.36 µM and 1.4 µM; in the assay on OVCAR-8 ovarian, > 10 µM and 37.4 µM; in the assay with SR leukemia, > 10 µM and 52.4 µM; with HCT-15 colon, 3.53 µM and 5.62 µM; in the assay on OVCAR-3 ovarian it was > 10 µM and 20.1 µM. Moreover, the GI50 in the assay with DU-145 prostate was > 10 µM and 17.8 µM; in the assay on K-562 leukemia, 1.32 µM and 4.26 µM; in the assay with SK-MEL-5 melanoma it was 7.7 µM; in the assay with RXF 393 renal, 0.678 µM and 1.6 µM. Moreover, the TGI was > 10 µM and 20.3 µM in the assay on UO-31 renal; more than 100 µM in the assay with NCI-H226 lung; more than 100 µM with OVCAR-8 ovarian; more than 100 µM with SR leukemia; more than 100 µM in the assay on HCT-15 colon; more than 100 µM in the assay on OVCAR-3 ovarian. The TGI with DU-145 prostate is more than 100 µM; in the assay with K-562 leukemia, more than 100 µM; in the assay with SK-MEL-5 melanoma, more than 100 µM; with RXF 393 renal, > 10 µM and 29.1 µM.

As to `O=C(/C=C/c1ccc([N+](=O)[O-])cc1)c1ccc2c3c(cccc13)CC2`, the GI50 with UO-31 renal is 10.4 µM; in the assay on NCI-H226 lung, more than 37.2 µM; in the assay on OVCAR-8 ovarian it was 22.2 µM; in the assay on SR leukemia it was 2.02 µM; in the assay with HCT-15 colon, 5.07 µM; with OVCAR-3 ovarian, 3 µM. Moreover, the GI50 in the assay on DU-145 prostate was 4.23 µM; with K-562 leukemia, 4.37 µM; in the assay with SK-MEL-5 melanoma, 33.2 µM; in the assay with RXF 393 renal, 4.47 µM. The TGI in the assay with UO-31 renal is more than 62.6 µM; with NCI-H226 lung, more than 100 µM; with OVCAR-8 ovarian, more than 100 µM; in the assay with SR leukemia, 24.9 µM; in the assay with HCT-15 colon, more than 100 µM; in the assay on OVCAR-3 ovarian, 10.1 µM. Besides, the TGI is more than 40.9 µM with DU-145 prostate, more than 100 µM in the assay with K-562 leukemia, more than 100 µM in the assay on SK-MEL-5 melanoma and 21.3 µM in the assay with RXF 393 renal.

Consider `CC1(C)CC(C)(C)C1=NNC(N)=O`, for which the TGI with UO-31 renal, in the assay with NCI-H226 lung, with OVCAR-8 ovarian, with SR leukemia, in the assay with HCT-15 colon and in the assay with OVCAR-3 ovarian was more than 100 µM in each case. Besides, the TGI with DU-145 prostate, in the assay on K-562 leukemia, in the assay with SK-MEL-5 melanoma and in the assay with RXF 393 renal was more than 100 µM throughout.

In the case of `Cn1cc(C2=C(c3cccc(OCC(O)CO)c3)C(=O)NC2=O)c2ccccc21` (configuration not stated), the GI50 in the assay with UO-31 renal, in the assay on NCI-H226 lung, in the assay on OVCAR-8 ovarian, in the assay with SR leukemia, in the assay on HCT-15 colon and in the assay with OVCAR-3 ovarian was more than 25 µM in each case. Besides, the GI50 with DU-145 prostate, with K-562 leukemia, in the assay with SK-MEL-5 melanoma and in the assay on RXF 393 renal was more than 25 µM throughout. In addition, the TGI in the assay on UO-31 renal, in the assay on NCI-H226 lung, in the assay on OVCAR-8 ovarian, with SR leukemia, in the assay with HCT-15 colon and in the assay on OVCAR-3 ovarian was more than 25 µM in each case. In addition, the TGI with DU-145 prostate, with K-562 leukemia, in the assay with SK-MEL-5 melanoma and in the assay on RXF 393 renal was more than 25 µM each time.

On to `O=[N+]([O-])c1cccc([As]=[As]c2cccc([N+](=O)[O-])c2)c1` (configuration not stated), for which the GI50 is 0.119 µM in the assay with UO-31 renal; 0.143 µM in the assay on NCI-H226 lung; 0.141 µM in the assay with OVCAR-8 ovarian; 0.0275 µM in the assay on SR leukemia; 0.0437 µM with HCT-15 colon; 0.0499 µM in the assay with OVCAR-3 ovarian. For the same compound, the GI50 in the assay with DU-145 prostate was 0.163 µM; with K-562 leukemia it was 0.0327 µM; with SK-MEL-5 melanoma, 0.162 µM; with RXF 393 renal, 0.0898 µM. For the same compound, the TGI was 0.255 µM in the assay with UO-31 renal; 0.287 µM in the assay on NCI-H226 lung; 0.284 µM with OVCAR-8 ovarian; 0.1 µM with SR leukemia; 0.174 µM with HCT-15 colon; 0.16 µM in the assay on OVCAR-3 ovarian. In addition, the TGI with DU-145 prostate was 0.309 µM; with K-562 leukemia, 0.106 µM; in the assay on SK-MEL-5 melanoma, 0.324 µM; in the assay with RXF 393 renal, 0.23 µM.

`CC#CC(=O)SCCNC(=O)CC`: the TGI was more than 10 µM in the assay on UO-31 renal; more than 10 µM in the assay on NCI-H226 lung; more than 10 µM with OVCAR-8 ovarian; more than 7.91 µM with SR leukemia; more than 10 µM in the assay with HCT-15 colon; more than 10 µM in the assay on OVCAR-3 ovarian. The TGI was more than 10 µM in the assay with DU-145 prostate, more than 10 µM in the assay with K-562 leukemia, more than 10 µM in the assay on SK-MEL-5 melanoma and more than 9.55 µM with RXF 393 renal.
